According to patent US12076307B2, “Compositions for prevention or treatment of acute radiation syndrome and other radiation exposure” (priority 2017, dated 2024):

How the values were obtained:
ICR mice = test: CNS function in mice (Irwin test); type: in vivo, mouse; conditions: single oral doses up to 2000 mg/kg; 4 hrs
[1] = In vitro plasma stability, rat plasma; type: in vitro ADME; conditions: Rats; 1 μM; 37° C.; n=3
Method: To assess the stability of EC-18 in plasma, the test material, or the standard reference material (test concentration 1 μM) was mixed with rat and human plasma and allowed to react for 1 hr at 37° C. Then, the residual EC-18 concentration was measured by LC-MS/MS. As standard reference materials, albendazole (a drug with high plasma stability) and vinpocetine (a drug with low plasma stability) were tested in parallel. When allowed to react with rat and human plasma for 1 hr, the residual EC-18 concentration in both rat and human plasma was >99% of the initial dose.

CYP1A2 = biological target: T1, CYP1A2 (Homo sapiens, UniProt P05177); test: in vitro; type: in vitro ADME; conditions: human, microsomes
T1 construct: incubated with human liver microsomes; from tissue; host or cells: human liver microsomes

Beagle dog = test: Cardiovascular function in conscious dogs; type: in vivo; conditions: doses up to 2000 mg/kg
Method: CA was administered to one unanesthetized and unrestrained telemetered male Beagle dog and EC-18 (500, 1000, or 2000 mg/kg) was administered to each of three unanesthetized and unrestrained telemetered male Beagle dogs (1:1:1:1) weekly for 4 weeks. Cardiovascular effects were evaluated based on the behavioral observations, BP, HR, and ECG, from 1-hr pre-dose to 24-hr post-dose.

Balb/c mice, TBI 6.5 Gy = test: Survival in extreme LD100 TBI murine model (6.5 Gy); type: in vivo, mouse; conditions: for Survival: 250 mg/kg/day 16 days
Method: Animals were treated orally with phosphate-buffered saline or EC-18 at 250 mg/kg/day for 16 days.

[2] = Whole blood and lymphatic radioactivity in rats after single oral [14C]EC-18 100 mg/kg; type: in vivo, rat
[3] = tested on: Balb/c mice, gamma-ray 6.11 Gy; test: DAMP (HMGB1, S100A9) in blood of irradiated mice; type: in vivo, mouse; conditions: 50 and 250 mg/kg oral 3 days from day 1
Method: To confirm the proposed mechanism of EC-18 in the in vivo model, female Balb/c mice were irradiated with a gamma-ray of 6.11 Gy on day 0. Then, EC-18 (50 and 250 mg/kg) or PBS was orally administered for 3 consecutive days from day 1 and the mice were sacrificed on the third day. […] While, from the EC-18-treated group, the amount of DAMP reduced compared to the control group, supporting the proposed mechanism of EC-18. Establishment of a Balb/C Mouse Model for ARS

gemcitabine-treated mice = test: Gemcitabine-induced neutropenia, PLAG with pegfilgrastim; type: in vivo, mouse
Method: In this work, neutrophil counts were compared in four groups of mice: control mice, gemcitabine-treated mice, gemcitabine/pegfilgrastim-treated mice, and gemcitabine/pegfilgrastim/PLAG-treated mice. Gemcitabine was administered intraperitoneally to induce neutropenia. On Day 0, pegfilgrastim was administered subcutaneously. PLAG (50 mg/kg) was orally administered every day during the treatment course. Blood was taken from the orbital sinuses on Days 0, 3, and 5, and neutrophils were counted. […] Pegfilgrastin is polyethylene glycol (PEG)-conjugated granulocyte colony-stimulating factor (PEGylated-G-CSF, pegfilgrastim).

CYP3A4 = CYP3A4 (Homo sapiens, UniProt P08684); test: CYP enzyme inhibition in human liver microsomes, CYP3A4
From the text: (§1) CYP1A2, CYP2C9, CYP2C19, CYP2D6, and CYP3A4 are the CYP subfamily, which plays a critical role in the metabolism of most drugs.

[4] = tested on: Balb/c mice, TBI 6.5 or 8 Gy; test: Radiation-induced skin damage (erythema) in lethal ARS mouse models; type: in vivo
From the text: In order to evaluate effects of PLAG on recovery skin damage of animal models exposed to radiation, the following test groups were constructed as shown in Table 4 and results are shown in FIGS. 13-15. As discussed in Examples above, the first group of untreate group (negative control) of mice after radiation was compared to the second group of treated group of mice with PLAG after radiation.
In addition to the ARS survival studies that have been conducted in mice, a series of studies that probe secondary measures of efficacy in radiation-induced skin damage in the Balb/c mice (n=10/sex/group). […] The development of skin damage (erythema and reddening) on the tails were evaluated.
In the following study, Balb/c mice (n=5 females/group) were exposed with a supra-lethal radiation dosage of 8 Gy and treated with EC-18 daily at 250 mg/kg/day for 17 days.
The secondary measures of EC-18's efficacy on the supra-LD (8 Gy) of radiation-induced skin damage were assessed. Female BALB/c mice (9 weeks of age) were randomly divided into 2 cohorts and daily administered in-life with the vehicle control (PBS) and EC-18 at 250 mg/kg (n=5/each cohort).

CYP2D6 = CYP2D6 (Homo sapiens, UniProt P10635); test: CYP enzyme inhibition in human liver microsomes, CYP2D6
From the text: as §1

hERG channel = hERG channel (Homo sapiens, UniProt Q12809); test: In vitro hERG channel inhibition; conditions: for hERG channel current suppression rate (compensated suppression rate): HEK-293 cells
[5] = Whole blood and lymphatic radioactivity in rats after single oral [14C]EC-18 100 mg/kg; type: in vivo, rat; conditions: 100 mg/kg oral; for Tmax: n=3, 100 mg/kg
Method: Male SD rats in fasted condition were administered a single dose of [^14C]EC-18 (oral dose of 100 mg/kg; vehicle: olive oil), and the radioactive concentration of the EC-18 was measured in whole blood samples at 0.5, 1, 2, 3, 4, 6, and 8 hrs after its administration. In parallel, male rats with a cannula inserted into the intestinal tract were administered a single dose of [^14C]EC-18 (oral dose of 100 mg/kg; vehicle: olive oil) and the concentration of EC-18-related radioactivity was measured in lymphatic fluid collected in conscious rats at 0.5, 1, 2, 3, 4, 6, and 8 hrs after its administration (FIG. 60). Then, the values of PK parameters were calculated using the quantitative data from whole blood and lymphatic fluid samples (Table 20). Following a single oral administration of [14C]EC-18, EC-18 concentration in the lymphatic fluid of rats was 10 to 53 times higher than that in whole blood (FIG. 60).

ICR mouse = test: Micronucleus assay; type: in vivo; conditions: Oral; Single; 0, 500, 1000, 2000 mg/kg
From the text: Various toxicology studies have been performed. All studies were GLP-compliant unless otherwise noted.

Sequence of hERG channel (Q12809 whole entry): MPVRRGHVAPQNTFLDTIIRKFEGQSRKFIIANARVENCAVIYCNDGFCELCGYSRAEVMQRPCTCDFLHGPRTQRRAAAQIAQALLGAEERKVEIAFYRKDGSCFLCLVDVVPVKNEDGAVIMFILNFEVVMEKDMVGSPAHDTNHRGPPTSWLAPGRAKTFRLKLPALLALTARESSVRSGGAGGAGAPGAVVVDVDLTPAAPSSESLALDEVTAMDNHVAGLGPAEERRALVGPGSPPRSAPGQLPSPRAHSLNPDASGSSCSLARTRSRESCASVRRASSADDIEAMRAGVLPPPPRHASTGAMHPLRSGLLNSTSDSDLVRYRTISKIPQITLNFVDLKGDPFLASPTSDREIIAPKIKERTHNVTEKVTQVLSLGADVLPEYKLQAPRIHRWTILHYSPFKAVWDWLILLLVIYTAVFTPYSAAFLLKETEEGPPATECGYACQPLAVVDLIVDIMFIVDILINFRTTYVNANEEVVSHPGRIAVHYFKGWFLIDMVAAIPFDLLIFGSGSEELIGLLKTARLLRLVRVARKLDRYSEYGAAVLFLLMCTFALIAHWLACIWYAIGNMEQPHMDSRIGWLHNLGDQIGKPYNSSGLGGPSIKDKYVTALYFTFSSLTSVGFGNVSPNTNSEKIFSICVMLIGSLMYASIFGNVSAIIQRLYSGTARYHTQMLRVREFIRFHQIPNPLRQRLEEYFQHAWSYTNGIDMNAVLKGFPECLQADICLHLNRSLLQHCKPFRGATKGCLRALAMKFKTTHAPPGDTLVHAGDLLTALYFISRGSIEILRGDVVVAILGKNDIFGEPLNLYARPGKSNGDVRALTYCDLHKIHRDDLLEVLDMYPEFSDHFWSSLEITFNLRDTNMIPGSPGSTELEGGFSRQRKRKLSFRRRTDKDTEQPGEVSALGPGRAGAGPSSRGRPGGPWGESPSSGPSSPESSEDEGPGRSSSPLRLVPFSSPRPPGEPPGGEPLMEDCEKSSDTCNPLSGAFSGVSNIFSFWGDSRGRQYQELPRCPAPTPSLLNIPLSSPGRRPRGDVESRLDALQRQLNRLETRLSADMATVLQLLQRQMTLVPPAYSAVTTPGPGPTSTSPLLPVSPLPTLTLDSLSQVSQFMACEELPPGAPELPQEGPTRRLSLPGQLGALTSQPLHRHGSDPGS
Sequence of CYP3A4 (P08684 whole entry): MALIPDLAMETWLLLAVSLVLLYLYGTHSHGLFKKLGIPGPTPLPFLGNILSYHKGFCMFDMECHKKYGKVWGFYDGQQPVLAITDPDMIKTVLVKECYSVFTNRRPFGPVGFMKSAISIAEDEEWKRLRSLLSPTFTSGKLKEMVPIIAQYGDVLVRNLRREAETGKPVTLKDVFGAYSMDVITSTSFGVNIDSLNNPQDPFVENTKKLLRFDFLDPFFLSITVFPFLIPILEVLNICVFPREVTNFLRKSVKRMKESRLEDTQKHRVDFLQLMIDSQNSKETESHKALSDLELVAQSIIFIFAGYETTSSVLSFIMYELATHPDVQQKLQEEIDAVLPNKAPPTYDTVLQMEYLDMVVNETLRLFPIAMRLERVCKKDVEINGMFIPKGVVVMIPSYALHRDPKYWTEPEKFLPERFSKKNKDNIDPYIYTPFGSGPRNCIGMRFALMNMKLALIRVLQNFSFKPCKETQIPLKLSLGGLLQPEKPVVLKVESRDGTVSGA
Sequence of CYP2D6 (P10635 whole entry): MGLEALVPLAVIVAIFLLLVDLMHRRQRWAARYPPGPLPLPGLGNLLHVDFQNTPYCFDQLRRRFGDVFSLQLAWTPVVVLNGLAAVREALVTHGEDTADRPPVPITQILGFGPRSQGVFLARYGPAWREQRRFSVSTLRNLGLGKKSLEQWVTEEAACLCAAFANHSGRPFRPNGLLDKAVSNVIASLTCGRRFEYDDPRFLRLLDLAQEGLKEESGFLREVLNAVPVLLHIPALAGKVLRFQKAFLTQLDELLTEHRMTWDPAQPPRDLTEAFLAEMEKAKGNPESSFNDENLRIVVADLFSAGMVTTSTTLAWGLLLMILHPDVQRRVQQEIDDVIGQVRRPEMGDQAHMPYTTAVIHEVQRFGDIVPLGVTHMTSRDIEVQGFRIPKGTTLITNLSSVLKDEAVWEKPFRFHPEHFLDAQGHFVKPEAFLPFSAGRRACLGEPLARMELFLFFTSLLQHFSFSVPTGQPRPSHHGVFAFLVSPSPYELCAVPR
T1 sequence (P05177 whole entry): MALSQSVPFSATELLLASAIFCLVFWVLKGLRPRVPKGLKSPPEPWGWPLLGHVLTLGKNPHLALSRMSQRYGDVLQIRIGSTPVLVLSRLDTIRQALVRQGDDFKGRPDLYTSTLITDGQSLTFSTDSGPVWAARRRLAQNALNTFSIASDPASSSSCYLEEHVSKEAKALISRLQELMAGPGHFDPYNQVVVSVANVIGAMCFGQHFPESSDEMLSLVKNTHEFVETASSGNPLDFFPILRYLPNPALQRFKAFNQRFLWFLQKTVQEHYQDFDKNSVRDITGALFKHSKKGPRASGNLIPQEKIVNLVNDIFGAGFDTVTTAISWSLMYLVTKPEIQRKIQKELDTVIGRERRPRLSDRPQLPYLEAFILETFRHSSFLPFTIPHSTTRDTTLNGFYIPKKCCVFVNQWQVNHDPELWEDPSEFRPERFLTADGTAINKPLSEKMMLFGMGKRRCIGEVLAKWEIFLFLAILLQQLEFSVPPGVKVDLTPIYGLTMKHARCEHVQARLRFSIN

Compound: CCCCC/C=C\C/C=C\CCCCCCCC(=O)OC(COC(C)=O)COC(=O)CCCCCCCCCCCCCCC (centres unmarked) [EC-18, 1-palmitoyl-2-linoleoyl-3-acetylglycerol]
- CNS function (Irwin test) (ICR mice): did not affect the CNS function
- Residual Concentration Relative to the Initial Dose After Reaction for 1 hr in Plasma [1]: >99%
- IC50 (CYP1A2): 24400 µM
- cardiovascular effects (behavior, BP, HR, ECG) (Beagle dog): no cardiovascular effects
- signs of subcutaneous hemorrhage (Balb/c mice, TBI 6.5 Gy; 250 mg/kg/day): markedly improved
- Survival (Balb/c mice, TBI 6.5 Gy; started 24-hr post-irradiation): 65%
- Survival (Balb/c mice, TBI 6.5 Gy; started 48-hr post-irradiation): 25%
- Cmax of radioactivity at 24 hrs (so in the source) ([2]; lymphatic fluid): 48%
- Cmax of radioactivity at 24 hrs (so in the source) ([2]; whole blood): 34%
- amount of DAMP (HMGB1, S100A9) in blood vs control group [3]: reduced
- blood cell apoptosis and neutrophil release from bone marrow (gemcitabine-treated mice; PLAG 50 mg/kg): did not affect
- pegfilgrastim-induced CXCR2 expression in neutrophils (gemcitabine-treated mice; PLAG 50 mg/kg): markedly decreased
- neutrophil counts (gemcitabine-treated mice; gemcitabine/pegfilgrastim/PLAG 50 mg/kg oral daily, third day following pegfilgrastim): dramatically increased
- IC50 (CYP3A4): 26.8 µM
- skin damage (erythema and reddening) on the tails vs PBS ([4]; 6.5 Gy, 250 mg/kg/day 30 days): substantial reduction of tail erythema
- skin damage (necrosis, ulceration, blistering, hair loss) on tails and feet vs PBS ([4]; 8 Gy, 250 mg/kg/day 17 days, n=5 females): extensively reduced
- mice with any skin damage on the tails ([4]; 8 Gy, 250 mg/kg, n=5, day 10): none of the five
- mice with slight hemorrhagic telangiectasia on the front right feet ([4]; 8 Gy, 250 mg/kg, n=5, day 10): Only one individual
- IC50 (CYP2D6): 67.9 µM
- hERG channel current suppression rate (compensated suppression rate) (hERG channel; 125 μM): 1.39%
- hERG channel current suppression rate (compensated suppression rate) (hERG channel; 250 μM): 2.97%
- hERG channel current suppression rate (compensated suppression rate) (hERG channel; 500 μM): 2.54%
- hERG channel current suppression rate (compensated suppression rate) (hERG channel; 1000 μM): 2.90%
- hERG channel current inhibition (hERG channel; concentrations up to 1000 μM): did not inhibit the hERG channel current
- AUC0-last in lymphatic fluid relative to whole blood [5]: 41 times
- Cmax in lymphatic fluid relative to whole blood [5]: 31 times
- Tmax ([5]; Lymphatic Fluid): 7.0 h
- Tmax ([5]; Whole Blood, fasted): 3.8 h
- micronucleus induction in mouse bone marrow cells (ICR mouse): EC-18 does not affect
